Results: US4312813A, “Bisquaternary ammonium compound” (Johnson & Johnson Baby Products Company, priority 1980, dated 1982)

Tests used:
[1] = hair fly-away: electrostatic charge of brushed hair tresses (Faraday pail, electrometer); settings: one percent aqueous solutions; hair tresses brushed or combed 20 strokes
Method: To test the hair fly-away characteristics of the novel bisquaternary ammonium compounds of the present invention, the following test procedure can be utilized.
The hair to be utilized is formed into six inch long, 1.5 gram weight tresses, cleaned with methanol first, then with a 1% solution of sodium lauryl sulfate followed by a rinse with distilled water. The tress is then dried in an oven at 55° C. The tresses except for the controls are then treated with the test compounds and redried at 55° C.
An electrometer (Electrometer Model 610C, Keithley Instrument Co., Cleveland, Ohio) to serve as a coulomb meter for direct measurement of charge is attached to a Faraday pail and switched on.
The test tresses are singly taken out of the drying oven, held at the tied end and brushed or combed twenty strokes alternating between front and back side of the tress as held by the operator. A clean brush or comb is utilized and the velocity with which the brush or comb is traversed through the tress is maintained constant as much as possible. Further, since the electrostatic charges are capable of being quickly dissipated into the atmosphere, the procedure consists of uniformly brushing or combing 20 strokes in a period of 10 seconds and immediately following the last stroke, the lid of the Faraday cage is opened and the tress is dropped into the Faraday pail without contacting any other object and the lid is replaced. The charge in coulombs is read from the electrometer and the tress is then removed from the Faraday pail and the instrument is reset for the next tress sample.
Since electrostatic charge buildup creates fly-away in atmospheres of low humidity, these compounds are useful to prevent said fly-away condition.

Pseudomonas aeruginosa = assay: Minimum Inhibiting Concentration test; assay type: cell-based; settings: 35° C., 18 hours
Method: (§1) First, 200 mg. each of the compounds, AA, CC, GG, II and MM are placed in 100 ml. of a 10% ethyl alcohol solution resulting in a concentration of 2.00 mg/ml. and then 11 serial two fold dilutions are made to a final concentration of […]. Thus, a range of concentrations of from 0.0001 mg/ml. to 2.00 mg/ml. are prepared. Separately, 1000 ml. of a standard Antibiotic Medium #3 is innoculated with 1 ml. of a 24 hour broth culture of each of the test organisms and the resulting solutions are dispersed in 2 ml. portions into 13 mm×100 mm test tubes at 4° C. Two test tubes for each of the test organisms are prepared.
(§2) Then, 0.4 ml. of each concentration of the compound to be tested is placed in each of the test tubes, which are then shaken and placed at a temperature of 35° C. for a period of 18 hours for bacteria, 25° C. for a period of 3 days for yeast, and 25° C. for a period of 1 month for fungi. The end point of the activity is determined by streaking utilizing a calibrated loop to Trypticase Soy Agar to determine the last tube (concentration) with growth and the next greatest concentration.

Escherichia coli = assay: Minimum Inhibiting Concentration test; assay type: cell-based; settings: 35° C., 18 hours
Method: as §1, §2

Staphylococcus pyogenes = assay: Minimum Inhibiting Concentration test; assay type: cell-based; settings: 35° C., 18 hours; for MIC: Staphylococcus aureus
Method: as §1, §2

Proteus vulgaris = assay: Minimum Inhibiting Concentration test; assay type: cell-based; settings: 35° C., 18 hours
Method: as §1, §2

[2] = system: Trichophyton mentagrophytes; assay: Minimum Inhibiting Concentration test; assay type: cell-based; settings: fungi, 25° C., 1 month
Method: as §1, §2

Staphylococcus epidermis = assay: Minimum Inhibiting Concentration test; assay type: cell-based; settings: 35° C., 18 hours
Method: as §1, §2

Epidermophyton flocossum = assay: Minimum Inhibiting Concentration test; assay type: cell-based; settings: fungi, 25° C., 1 month
Method: as §1, §2

Aspergillus niger = assay: Minimum Inhibiting Concentration test; assay type: cell-based; settings: fungi, 25° C., 1 month
Method: as §1, §2

Candida albicans = assay: Minimum Inhibiting Concentration test; assay type: cell-based; settings: yeast, 25° C., 3 days; for MIC: 72 h
Method: as §1, §2

Staphylococcus aureos = assay: Minimum Inhibiting Concentration test; assay type: cell-based; settings: 35° C., 18 hours
Method: as §1, §2

Proteus mirabilis = assay: Minimum Inhibiting Concentration test; assay type: cell-based; settings: 35° C., 18 hours
Method: as §1, §2

rabbit eye = assay: modified Draize Test, ocular irritation; assay type: in vivo; settings: 3.50% of compound in shampoo composition; 0.1 ml per eye, albino rabbit; control shampoo rated Severe Irritant
Method: The bisquaternary ammonium compounds of the present invention can be tested for ocular irritation by the following modified Draize Test (J. H. Draize et al., Toilet Goods Assn. No. 17, May 1952, No. 1, Proc. Sci. Sect.).
An 0.1 ml. sample of a neutral composition under test is dropped into one eye of an albino rabbit, the other eye serving as a control. Six rabbits are employed for each composition. Observations are made after 1, 24, 48, 72 and 96 hours and 7 days after initial instillation; second and third instillations are made after the 24 and 48 hour readings. Results may vary from substantially no change or only a slight irritation in the appearance of the rabbit's eye after 7 days to severe irritation and/or complete corneal opacity. Ocular lesions are scored for the cornea, iris and conjunctiva with a higher number indicating greater ocular irritation and the scores are added to give a total numerical value for each reading for six rabbits and averaged. The averaged score is an indication of the irritation potential of the composition under test. Based on the averaged score, descriptive irritation evaluation may be given, e.g., none, slight, moderate, severe, as the case may be.
A shampoo composition is prepared consisting of the following ingredients:
This formulation serves as a control with three additional formulations being made with the only difference being that in each of said formulations 3.50% of distilled water is replaced with 3.50% of compound JJ, KK and LL respectively. These formulations are then tested in accordance with the above procedure and the results are shown below in Table I.

Row | Molecule | charge reduction compared to the control [1] | MIC (Pseudomonas aeruginosa) [µg/mL] | MIC (Escherichia coli) [µg/mL] | MIC (Staphylococcus pyogenes) [µg/mL] | MIC (Proteus vulgaris) [µg/mL] | MIC [2] [µg/mL] | MIC (Staphylococcus epidermis) [µg/mL] | MIC (Epidermophyton flocossum) [µg/mL] | MIC (Aspergillus niger) [µg/mL] | MIC (Candida albicans) [µg/mL] | MIC (Staphylococcus aureos) [µg/mL] | MIC (Proteus mirabilis) [µg/mL] | ocular irritation rating (rabbit eye) | also measured
1 | CCCCCCCCCCCC(=O)NCCC[N+](C)(C)CCOCC[N+](C)(C)CCCNC(=O)CCCCCCCCCCC [CC, N,N'-di(lauramidopropyl)-N,-N,N',N'-tetramethyl-1,5(3-oxapentylene) diammonium bromide] | greater than 95% | 250 | 125 | 250 | < 2000 | 16 | 125 | 62.5 | 125 | 63 | 250 | < 2000 |  | 
2 | CCCCCCCCCCCCCCCCCCCCCC(=O)NCCC[N+](C)(C)CCOCC[N+](C)(C)CCCNC(=O)CCCCCCCCCCCCCCCCCCCCC [KK, N,N'-di(docosamidopropyl)-N,N,N',N'-tetramethyl-1,5(3-oxapentylene)diammonium dibromide] |  |  |  |  |  |  |  |  |  |  |  |  | Slight-Moderate Irritant | 
3 | C=CCCCCCCCCC(=O)NCCC[N+](C)(C)CCCC[N+](C)(C)CCCNC(=O)CCCCCCCCC=C [AA, N,N'-undecenylamidopropyl-N,N,N',N'-tetramethyl-1,-4-butylene diammonium bromide] |  | 1000 | 125 | 500 | 250 | 16 | 62.5 | 125 | 250 | 250 | 125 | < 2000 |  | 
4 | CCCCCCCCCCCCCCCCCCCCCC(=O)NCCC[N+](C)(C)CCOCCOCCOCCOCCOCCOCCOCCOCCOCCOCCOCCOCC[N+](C)(C)CCCNC(=O)CCCCCCCCCCCCCCCCCCCCC.[Br-].[Br-] [LL, N,N'-di(docosamidopropyl)-N,N,N',N'-tetramethyl-1,38(3,6,9,12,15,18,21,24,-27,30,33,36-dodeca-oxaoctatricontylene)diammonium dibromide] | greater than 95% |  |  |  |  |  |  |  |  |  |  |  | Slight-Moderate Irritant | 
5 | N,N'-di(octadidecenamidopropyl)-N,N,N',N'-tetramethyl-1,20 (2,5,8,11,14,17,20-heptamethyl-3,6-9,12,15,18-hexaoxaeicosylene) diammonium dibromide [II] |  |  |  |  |  |  |  |  |  |  |  |  |  | minimum inhibiting concentration (Pseudomonas aeruginosa): 2000 µg/mL; minimum inhibiting concentration (Escherichia coli): 500 µg/mL; minimum inhibiting concentration (Staphylococcus pyogenes): < 2000 µg/mL; minimum inhibiting concentration (Proteus vulgaris): < 2000 µg/mL; minimum inhibiting concentration [2]: 31 µg/mL; minimum inhibiting concentration (Staphylococcus epidermis): 1000 µg/mL; minimum inhibiting concentration (Epidermophyton flocossum): 500 µg/mL; minimum inhibiting concentration (Aspergillus niger): 500 µg/mL; minimum inhibiting concentration (Candida albicans): 250 µg/mL; minimum inhibiting concentration (Staphylococcus aureos): 2000 µg/mL; minimum inhibiting concentration (Proteus mirabilis): < 2000 µg/mL
6 | CCCCCCCCCCCCCCCCCC(=O)NCC[N+](CC)(CC)CCOCC[N+](CC)(CC)CCNC(=O)CCCCCCCCCCCCCCCCC [GG, N,N'-di(stearamidoethyl)-N,N,N',N'-tetraethyl-1,5(3-oxapentylene)diammonium dibromide] |  | < 2000 | 1000 | < 2000 | < 2000 | 16 | 62.5 | 250 | 250 | 31 | 625 | < 2000 |  | 
7 | N,N'-di(octatridecenamidopropyl)-N,N,N',N'-tetramethyl-1,5(3-oxapentylene)-diammonium dibromide [JJ] | greater than 95% |  |  |  |  |  |  |  |  |  |  |  | Slight Irritant | 
